# Laboratory results: patent US8633184B2, “Benzoazepin-oxy-acetic acid derivatives as PPAR-delta agonists used for the increase of HDL-C, lower LDL-C and lower cholesterol” (Janssen Pharmaceutica N.V., priority 2006, dated 2014)
# “And” between values parts separate entries of the source, which are not always exact repeats. Equal values may be shown once. Read-outs that look alike come from different tables or passages of the source.
# How the values were obtained:
# [1] = tested on: Sprague Dawley rats fed a diet high in cholesterol; test: Rat study: high cholesterol diet, serum lipids and liver weights after 8 days treatment; format: in vivo; conditions: for HDL-C / LDL-C / Total Cholesterol / Triglycerides / Liver Weights: 8 days
# Source text: (§1) Rats carry the majority of serum cholesterol in the HDL lipoprotein fraction while humans carry the majority of serum cholesterol in LDL and VLDL lipoproteins. To mimic a human hypercholesterolemic state in a rodent model, Sprague Dawley rats were fed a diet high in cholesterol (Research Diets, C13002) for 6 days before treatment with the compounds for another 8 days while remaining on the diet. Under this dietary regimen, the vehicle controls (HC: High Cholesterol) typically have serum total cholesterol and LDL-C levels that are increased by 3-8 fold and serum HDL-C is decreased by approximately 30-50% compared with chow diet (lean) controls.
# (§2) Compound 7 had no effect on serum triglycerides or liver weights.
# PPARδ = molecular target: T1, PPARδ (Homo sapiens, UniProt Q03181); test: Transfection assay, GAL4-PPARδ LBD luciferase reporter in HEK293 cells; format: cell-based; conditions: 18-24 hrs
# T1 construct: expressed in transfected cells; host or cells: HEK293
# T1 sequence (Q03181 211-439 limits assumed): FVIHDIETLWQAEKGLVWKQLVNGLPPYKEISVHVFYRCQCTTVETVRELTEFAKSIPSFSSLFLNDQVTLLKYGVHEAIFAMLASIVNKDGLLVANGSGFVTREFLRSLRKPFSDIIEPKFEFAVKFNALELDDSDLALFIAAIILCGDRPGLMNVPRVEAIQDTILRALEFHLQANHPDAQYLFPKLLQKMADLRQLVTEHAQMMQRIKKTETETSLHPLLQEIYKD
# Experimental: (§3) HEK293 cells were grown in DMEM/F12 medium supplemented with 10% FBS and glutamine (Invitrogen) and incubated in a 5% CO2 incubator at 37° C. The cells were co-transfected using DMRIE-C reagent (Invitrogen) in serum free medium (Opti-MEM, Invitrogen) with two mammalian expression plasmids, one containing the DNA sequence coding for the ligand binding domains of either PPARα, γ or δ fused to the yeast GAL4 DNA binding domain and the other containing the promoter sequence of the yeast GAL4 (UAS) fused to the firefly luciferase cDNA reporter. The next day, the medium was changed to DMEM/F12 medium supplemented with 5% charcoal treated serum (Hyclone) and glutamine. After 6 hrs the cells were trypsinized and seeded at a density of 50,000 cells/well into 96 well plates and incubated overnight as above. The cells were then treated with test compounds or vehicle and incubated for 18-24 hrs as above. Luciferase reporter activity was measured using the Steady-Glo Luciferase Assay Kit from Promega. DMRIE-C Reagent was purchased from GIBCO Cat. No. 10459-014. OPTI-MEM I Reduced Serum Medium was purchased from GIBCO (Cat. No. 31985). Steady-Glo Luciferase Assay Kit was purchased from Promega (Part #E254B).
# (§4) A variety of example compounds have been made and tested, with a range of in vitro results. Below, in Table 2, are representative compounds and data; in some cases, where multiple EC50's are shown, multiple measurements were taken. Naturally, different compounds in Formula (I) may have not activities identical to any one compound below.
# [2] = Rat study: drug plasma levels (pharmacokinetics); format: in vivo
# Source text: as §1, §2
# [3] = Rat study: drug plasma levels (pharmacokinetics); format: in vivo; conditions: for Cmax / half-life / AUC(0-t): Sprague Dawley, plasma
# PPARγ = molecular target: T2, PPARγ (Homo sapiens, UniProt P37231); test: Transfection assay, GAL4-PPARγ LBD luciferase reporter in HEK293 cells; format: cell-based; conditions: 18-24 hrs
# T2 construct: expressed in transfected cells; host or cells: HEK293
# T2 sequence (P37231 238-503 limits assumed): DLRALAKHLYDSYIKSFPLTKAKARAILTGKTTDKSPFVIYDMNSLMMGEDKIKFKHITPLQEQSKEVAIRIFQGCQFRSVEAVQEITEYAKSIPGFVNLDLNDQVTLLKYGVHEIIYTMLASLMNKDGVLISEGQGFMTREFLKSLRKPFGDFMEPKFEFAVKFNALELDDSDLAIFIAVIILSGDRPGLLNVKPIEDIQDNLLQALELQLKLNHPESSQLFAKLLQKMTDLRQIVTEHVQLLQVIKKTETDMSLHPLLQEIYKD
# Experimental: as §3, §4
# PPARα = molecular target: T3, PPARα (Homo sapiens, UniProt Q07869); test: Transfection assay, GAL4-PPARα LBD luciferase reporter in HEK293 cells; format: cell-based; conditions: 18-24 hrs
# T3 construct: expressed in transfected cells; host or cells: HEK293
# T3 sequence (Q07869 239-466 limits assumed): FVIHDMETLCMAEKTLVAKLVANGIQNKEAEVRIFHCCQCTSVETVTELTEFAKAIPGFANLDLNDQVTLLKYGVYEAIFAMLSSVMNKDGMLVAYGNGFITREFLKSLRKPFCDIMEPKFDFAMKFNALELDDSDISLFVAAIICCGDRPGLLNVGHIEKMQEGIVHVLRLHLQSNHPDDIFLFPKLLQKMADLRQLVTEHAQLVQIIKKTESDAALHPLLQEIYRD
# Experimental: as §3, §4
smiles,measurement,setting,value
O=C(O)COc1ccc2c(c1)CCN(Cc1ccc(-c3ccc(C(F)(F)F)cc3)s1)CC2 [compound 7],HDL-C,[1]; 0.1 mg/kg,24.2 ± 2.9 mg/dL
same,LDL-C,[1]; 0.1 mg/kg,32.7 ± 4.7 mg/dL
same,Total Cholesterol,[1]; 0.1 mg/kg,239.0 ± 22.4 mg/dL
same,Triglycerides,[1]; 0.1 mg/kg,269.8 ± 27.8 mg/dL
same,HDL-C,[1]; 0.3 mg/kg,29.6 ± 1.4 mg/dL
same,LDL-C,[1]; 0.3 mg/kg,31.2 ± 1.5 mg/dL
same,Liver Weights,[1]; 0.3 mg/kg,25.0 ± 0.8
same,Total Cholesterol,[1]; 0.3 mg/kg,233.2 ± 9.5 mg/dL
same,Triglycerides,[1]; 0.3 mg/kg,264.7 ± 29.8 mg/dL
same,HDL-C,[1]; 1 mg/kg,31.8 ± 0.9 mg/dL
same,LDL-C,[1]; 1 mg/kg,24.4 ± 1.3 mg/dL
same,Liver Weights,[1]; 1 mg/kg,23.9 ± 0.5
same,Total Cholesterol,[1]; 1 mg/kg,173.3 ± 7.9 mg/dL
same,Triglycerides,[1]; 1 mg/kg,237.7 ± 25.4 mg/dL
same,HDL-C,[1]; 3 mg/kg,39.6 ± 1.6 mg/dL
same,LDL-C,[1]; 3 mg/kg,20.6 ± 1.5 mg/dL
same,Liver Weights,[1]; 3 mg/kg,27.2 ± 0.9
same,Total Cholesterol,[1]; 3 mg/kg,152.2 ± 8.5 mg/dL
same,Triglycerides,[1]; 3 mg/kg,299.5 ± 35.9 mg/dL
same,LDL-C levels (effect in words),[1]; 8 days treatment,significant decreases
same,liver weights (effect in words),[1]; 8 days treatment,no effect
same,serum total cholesterol levels (effect in words),[1]; 8 days treatment,significant decreases
same,serum triglycerides (effect in words),[1]; 8 days treatment,no effect
same,HDL-C levels (effect in words),"[1]; 8 days treatment, achieving the levels of the chow fed controls",significantly increased
same,EC50,PPARδ,14.5 nM and 18.9 nM
same,"drug plasma levels (Cmax and AUC), in words",[2],dose-related increases
same,Tmax,"[2]; Dose 0.1, Multiple, n = 2",2.5 h
same,Tmax,"[2]; Dose 0.3, Multiple",3 h
same,Tmax,"[2]; Dose 1, Multiple, n = 2",4 h
same,Tmax,"[2]; Dose 3, Single, n = 2",5.5 h
same,AUC(0-t),"[2]; Sprague Dawley, plasma, 0.1 mg/kg, Dose 0.1, Multiple, n = 2, read-out: AUC0-24",772 ng·h/mL
same,half-life,"[2]; Sprague Dawley, plasma, 0.3 mg/kg, Dose 0.3, Multiple, read-out: t½",~1320 min
same,AUC(0-t),"[2]; Sprague Dawley, plasma, 3 mg/kg, Dose 3, Multiple, read-out: AUC0-24",37100 ng·h/mL
same,Tmax,"[3]; Dose 3, Multiple",5 h
same,Cmax,"[3]; 0.1 mg/kg, Dose 0.1, Multiple, n = 2",57 ng/mL
same,half-life,"[3]; 0.1 mg/kg, Dose 0.1, Multiple, n = 2, read-out: t½",~780 min
same,Cmax,"[3]; 0.3 mg/kg, Dose 0.3, Multiple",124 ng/mL
same,AUC(0-t),"[3]; 0.3 mg/kg, Dose 0.3, Multiple, read-out: AUC0-24",1640 ng·h/mL
same,Cmax,"[3]; 1 mg/kg, Dose 1, Multiple, n = 2",595 ng/mL
same,AUC(0-t),"[3]; 1 mg/kg, Dose 1, Multiple, n = 2, read-out: AUC0-24",10900 ng·h/mL
same,Cmax,"[3]; 3 mg/kg, Dose 3, Multiple",2030 ng/mL
same,half-life,"[3]; 3 mg/kg, Dose 3, Multiple, read-out: t½",~2160 min
same,Cmax,"[3]; 3 mg/kg, Dose 3, Single, n = 2",733 ng/mL
same,AUC(0-t),"[3]; 3 mg/kg, Dose 3, Single, n = 2, read-out: AUC0-24",14200 ng·h/mL
same,half-life,"[3]; 3 mg/kg, Dose 3, Single, n = 2, read-out: t½",~1740 min
same,EC50,PPARγ,> 3 µM
same,EC50,PPARα,> 3 µM
CCC(c1ccc(-c2ccc(C(F)(F)F)cc2)s1)N1CCc2ccc(OCC(=O)O)cc2CC1 (centres unmarked) [compound 30],EC50,PPARδ,0.9 nM
same,EC50,PPARγ,> 3 µM
same,EC50,PPARα,> 3 µM
O=C(O)COc1ccc2c(c1)CCN(Cc1ccc(-c3ccc(Cl)cc3Cl)s1)CC2 [compound 31],EC50,PPARδ,237 nM
same,EC50,PPARγ,> 3 µM
same,EC50,PPARα,> 3 µM
O=C(O)COc1ccc2c(c1)CCN(Cc1ccc(-c3ccc(OC(F)(F)F)cc3)s1)CC2 [compound 32],EC50,PPARδ,157 nM
same,EC50,PPARγ,> 3 µM
same,EC50,PPARα,> 3 µM
O=C(O)COc1ccc2c(c1)CCN(Cc1ccc(-c3ccc(Cl)cc3Cl)o1)CC2 [compound 33],EC50,PPARδ,148 nM and 167 nM
same,EC50,PPARγ,> 3 µM
same,EC50,PPARα,> 3 µM
O=C(O)COc1ccc2c(c1)CCN(Cc1ccc(-c3ccc(OC(F)(F)F)cc3)o1)CC2 [compound 34],EC50,PPARδ,373 nM
same,EC50,PPARγ,> 3 µM
same,EC50,PPARα,> 3 µM
O=C(O)COc1ccc2c(c1)CCN(Cc1ccc(-c3ccc(Cl)cc3)o1)CC2 [compound 35],EC50,PPARδ,169 nM
same,EC50,PPARγ,> 3 µM
same,EC50,PPARα,> 3 µM
Cc1cc(-c2ccc(C(F)(F)F)cc2)oc1CN1CCc2ccc(OCC(=O)O)cc2CC1 [compound 36],EC50,PPARδ,29.2 nM
same,EC50,PPARγ,> 3 µM
same,EC50,PPARα,> 3 µM
O=C(O)C1(Oc2ccc3c(c2)CCN(Cc2ccc(-c4ccc(C(F)(F)F)cc4)s2)CC3)CC1 [compound 37],EC50,PPARδ,5.3 nM
same,EC50,PPARγ,> 3 µM
same,EC50,PPARα,> 3 µM
O=C(O)C1(Oc2ccc3c(c2)CCN(Cc2ccc(-c4ccc(C(F)(F)F)cc4)o2)CC3)CC1 [compound 38],EC50,PPARδ,18 nM
same,EC50,PPARγ,> 1 µM
same,EC50,PPARα,0.031 µM
O=C(O)C1(Oc2ccc3c(c2)CCN(Cc2cnc(-c4ccc(C(F)(F)F)cc4)s2)CC3)CC1 [compound 39],EC50,PPARδ,12 nM
same,EC50,PPARγ,> 1 µM
same,EC50,PPARα,> 1 µM
O=C(O)COc1ccc2c(c1)CCN(Cc1ccc(-c3ccc(C(F)(F)F)cc3)cc1)CC2 [compound 40],EC50,PPARδ,> 1000 nM
same,EC50,PPARγ,> 3 µM
same,EC50,PPARα,> 3 µM
O=C(O)COc1ccc2c(c1)CCN(Cc1ccnc(-c3ccc(C(F)(F)F)cc3)n1)CC2 [compound 41],EC50,PPARδ,> 1000 nM
same,EC50,PPARγ,> 3 µM
same,EC50,PPARα,> 3 µM
O=C(O)COc1ccc2c(c1)CCN(Cc1cncc(-c3ccc(C(F)(F)F)cc3)n1)CC2 [compound 42],EC50,PPARδ,> 1000 nM
same,EC50,PPARγ,> 3 µM
same,EC50,PPARα,> 3 µM
O=C(O)COc1ccc2c(c1)CCN(Cc1cccc(-c3ccc(C(F)(F)F)cc3)n1)CC2 [compound 43],EC50,PPARδ,> 3000 nM
same,EC50,PPARγ,> 3 µM
same,EC50,PPARα,> 3 µM
COc1ccc(-c2ccc(CN3CCc4ccc(OCC(=O)O)cc4CC3)o2)cc1 [compound 44],EC50,PPARδ,> 1000 nM
same,EC50,PPARγ,> 3 µM
same,EC50,PPARα,> 3 µM
O=C(O)COc1ccc2c(c1)CCN(CCc1ccc(-c3ccc(C(F)(F)F)cc3)o1)CC2 [compound 45],EC50,PPARδ,> 1000 nM
same,EC50,PPARγ,> 3 µM
same,EC50,PPARα,> 3 µM
O=C(O)COc1ccc2c(c1)CCN(Cc1ccc(-c3ccc(C(F)(F)F)cc3)nc1)CC2 [compound 46],EC50,PPARδ,312 nM
same,EC50,PPARγ,> 3 µM
same,EC50,PPARα,> 1 µM
O=C(O)COc1ccc2c(c1)CCN(Cc1cccc(-c3ccc(C(F)(F)F)cc3)c1)CC2 [compound 47],EC50,PPARδ,> 3000 nM
same,EC50,PPARγ,> 3 µM
same,EC50,PPARα,> 3 µM
